Blank lines part the entries; values can stand above or below the compound they belong to.
What was measured:
[1] = biological target: T1, purified human IDO1 enzyme (Homo sapiens, UniProt P14902); test: IDO1 inhibition assay by the spectrometric method (pDMAB); format: biochemical; conditions: for IC50: purified human IDO1, spectrophotometric, mean of three independent assays, read-out: hIDO1 IC50
T1 construct: made in house; host or cells: Escherichia coli M15 (pQE30 vector with pREP4 plasmid)
Procedure: Both IDO1 and TDO inhibition assays were performed according to the reported procedures[26]–[30],[50],[51]. […] In the assay system, the minimum and maximum amount of DMSO was 0.02% and 2%, respectively. […] The concentration of the inhibitors was varied from 100 µM to 32 nM by serial dilution technique. Then, the reaction was quenched with 100 µL of 30% (w/v) trichloroacetic acid and was incubated for further 15 minutes at 65 °C. After that, 2% (w/v) pDMAB was used to quantify the amount of kynurenine formation. The absorbance of the reaction mixture was recorded by UV-Vis spectrophotometer at 480 nm.

[2] = biological target: T2, purified human TDO enzyme (Homo sapiens, UniProt P48775); test: TDO inhibition assay by the spectrometric method; format: biochemical; conditions: spectrophotometric
T2 construct: 6xHis (N); made in house; host or cells: Escherichia coli BL21 (DE3) (pET 28a vector)
Procedure: Both IDO1 and TDO inhibition assays were performed according to the reported procedures[26]–[30],[50],[51]. The solubility of the compounds in water was either moderate or poor. […] In the assay system, the minimum and maximum amount of DMSO was 0.02% and 2%, respectively. The standard reaction mixture (500 μL) containing KPB (100 mM, pH 6.5 for IDO1 enzyme and 50 mM, pH 8.0 for TDO enzyme), sodium ascorbate (20 mM), methylene blue (10 µM), catalase (240 nM, from bovine liver), L-Trp (150 µM), purified enzyme (40 nM for IDO1 and 25 nM for TDO), DMSO (0.05%, v/v), Triton-X 100 (0.01%, v/v) and inhibitors was incubated at 37 °C for 1 hour. The concentration of the inhibitors was varied from 100 µM to 32 nM by serial dilution technique. Then, the reaction was quenched with 100 µL of 30% (w/v) trichloroacetic acid and was incubated for further 15 minutes at 65 °C. After that, 2% (w/v) pDMAB was used to quantify the amount of kynurenine formation. The absorbance of the reaction mixture was recorded by UV-Vis spectrophotometer at 480 nm. The Km = 59.76 µM and Kcat = 6.18 sec^−1.

IDO1 [3] = biological target: T3, IDO1 (Homo sapiens, UniProt P14902); test: Kynurenine assay by HPLC analysis, IDO1; format: biochemical; design: made in house; host or cells: Escherichia coli M15 (pQE30 vector with pREP4 plasmid)
Procedure: (§1) HPLC based IDO1, and TDO inhibition assays were performed according to the earlier reported procedure[19],[27]–[30]. The reaction mixture (250 µL) contained KPB (100 mM, pH 6.5 for IDO1 and 50 mM, pH 8.0 for TDO), sodium ascorbate (20 mM), methylene blue (10 µM), catalase (240 nM, from bovine liver, Sigma), L-Trp (150 µM), purified enzyme (40 nM for IDO1 and 25 nM for TDO), DMSO (0.05%, v/v), Triton-X 100 (0.01%, v/v) and inhibitors. The concentration of the compound was varied from 100 µM to 32 nM by serial dilution. The mixture was incubated at 37 °C for 1 hour in the absence and presence of the synthesized compounds. The reaction was then quenched using 50 µL of 30% (w/v) trichloroacetic acid and incubated at 65 °C for additional 15 minutes to allow complete hydrolysis of N-formylkynurenine to kynurenine. After that, the mixture was centrifuged at 10,000 rpm for 10 minutes, and 100 µL of clear solution was transferred to another tube for HPLC analysis. Then, 20 µL of the reaction mixture was then injected through Ascentis® express C18, 2.7 µm HPLC column with a flow rate of 0.5 mL/minute of the mobile phase containing 50% sodium citrate buffer (40 mM, pH 2.25) and 50% methanol (v/v) with 400 µM SDS. The area under the curve at 365 nm chromatogram corresponding to the kynurenine formation was recorded, and % of inhibition was calculated using standard curve prepared with pure kynurenine (from Sigma) under similar experimental conditions.

TDO enzyme = biological target: T4, TDO enzyme (Homo sapiens, UniProt P48775); test: HPLC based TDO inhibition assay; format: biochemical
T4 construct: 6xHis (N); made in house; host or cells: Escherichia coli BL21 (DE3) (pET 28a vector)
Procedure: as §1

IDO1 [4] = biological target: T3, IDO1; test: Cellular IDO1 activity assay in IFN-γ induced MDA-MB-231 cells; format: cell-based; design: induce the expression of the native IDO1 enzyme from its mRNA in the MDA-MB-231 cells; endogenous in cells; host or cells: MDA-MB-231 cells induced with human IFN-γ (50 ng/mL); conditions: IDO1 expression induced by human IFN-γ (50 ng/mL); mean of three
Procedure: The cellular enzyme activity assay was performed according to the reported procedure with minor modifications[19],[27]–[30],[33],[54]. Briefly, MDA-MB-231 breast cancer cells were selected for this assay because of the presence of IDO1 mRNA in this cell line. First, cells were grown in DMEM/F12 complete media overnight. Then different concentration of human interferon-gamma (IFN-γ) (from 5–1000 ng/mL) was added to it and incubated for 48 hours. This treatment is reported to allow over-expression of IDO1 enzyme in MDA-MB-231 cells. […] Sterile cell-culture grade PBS was used to wash the cells by centrifugation technique. Then, the pellet was lysed in 10 mM HEPES buffer by passing through a sterile syringe. The lysate was used for standard IDO1 assay as mentioned earlier. The relative amount of N-formylkynurenine generated in the presence of the different concentration of IFN-γ was used to optimize the required concentration of IFN-γ for the IDO1 inhibition assay. […] Cells stimulated with IFN-γ alone were used as negative control, while cells stimulated with L-Trp without compound served as positive control. The cells were washed with sterile cell culture grade PBS and lysed in 10 mM HEPES buffer by sterile syringe. The lysate was used for standard IDO1 assay, as mentioned earlier, and the extent of IDO1 enzyme inhibition was determined for the selected compounds.

T4 sequence (P48775 whole entry): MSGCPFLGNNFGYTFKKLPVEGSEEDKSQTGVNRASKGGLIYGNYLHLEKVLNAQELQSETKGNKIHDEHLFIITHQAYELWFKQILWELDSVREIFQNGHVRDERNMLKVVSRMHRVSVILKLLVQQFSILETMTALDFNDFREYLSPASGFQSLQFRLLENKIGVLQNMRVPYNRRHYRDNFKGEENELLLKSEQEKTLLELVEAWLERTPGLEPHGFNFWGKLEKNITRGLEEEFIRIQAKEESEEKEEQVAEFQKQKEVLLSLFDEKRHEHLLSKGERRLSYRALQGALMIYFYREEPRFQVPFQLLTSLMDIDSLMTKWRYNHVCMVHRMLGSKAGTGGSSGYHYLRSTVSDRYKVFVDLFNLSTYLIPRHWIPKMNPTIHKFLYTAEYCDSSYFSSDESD
T2 sequence (P48775 whole entry): as above
T3 sequence (P14902 whole entry): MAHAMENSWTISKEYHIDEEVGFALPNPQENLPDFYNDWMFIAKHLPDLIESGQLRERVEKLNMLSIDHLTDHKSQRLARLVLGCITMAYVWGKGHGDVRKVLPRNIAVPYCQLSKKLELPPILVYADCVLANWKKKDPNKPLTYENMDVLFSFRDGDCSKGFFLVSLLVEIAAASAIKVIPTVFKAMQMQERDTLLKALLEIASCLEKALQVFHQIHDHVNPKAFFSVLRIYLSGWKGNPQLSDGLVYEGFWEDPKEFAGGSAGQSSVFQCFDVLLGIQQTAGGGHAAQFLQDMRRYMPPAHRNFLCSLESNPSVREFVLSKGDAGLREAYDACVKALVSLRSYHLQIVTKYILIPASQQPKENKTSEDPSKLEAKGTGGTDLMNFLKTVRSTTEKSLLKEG
T1 sequence (P14902 whole entry): as above

SMILES: CCOC(=O)c1n[nH]nc1-c1cccc(Br)c1 [Compound 2e]
- IC50 [1]: 2.981 ± 0.012 µM

SMILES: Fc1ccc(-c2n[nH]nc2-c2ccc(F)cc2)cc1 [Compound 1f]
- IC50 [1]: 25.2 ± 1.7 µM

SMILES: CCOC(=O)c1n[nH]nc1-c1ccc(Br)cc1 [Compound 2h]
- IC50 [1]: 18.4 ± 1.68 µM

SMILES: CCOC(=O)c1n[nH]nc1-c1ccc(F)c(Br)c1 [2 l]
- IC50 [1]: 3.04 ± 0.091 µM

SMILES: Fc1ccc(-c2n[nH]nc2-c2ccc(F)c(F)c2)cc1F [Compound 1i]
- IC50 [1]: 7.72 ± 0.761 µM

SMILES: Clc1ccc(-c2n[nH]nc2-c2ccc(Cl)c(Cl)c2)cc1Cl [Compound 1j]
- IC50 [1]: 12.9 ± 0.191 µM

SMILES: CCOC(=O)c1n[nH]nc1-c1cccc(F)c1 [Compound 2c]
- IC50 [1]: 31.4 ± 4.21 µM

SMILES: Clc1ccc(-c2n[nH]nc2-c2ccc(Cl)cc2)cc1 [Compound 1g]
- IC50 [1]: 3.21 ± 0.1 µM

SMILES: Fc1cccc(-c2n[nH]nc2-c2cccc(F)c2)c1 [Compound 1c]
- IC50 [1]: 4.99 ± 0.057 µM

SMILES: CCOC(=O)c1n[nH]nc1-c1ccc(F)cc1 [Compound 2f]
- IC50 [1]: 8.09 ± 0.21 µM

SMILES: Fc1ccc(-c2n[nH]nc2-c2ccc(F)c(Br)c2)cc1Br [1 l]
- fold stronger IDO1 inhibitory activity than 1a ([1]; in comparison with lead compound 1a): 46 fold
- IC50 [1]: 1.94 ± 0.083 µM

SMILES: Cc1ccc(-c2n[nH]nc2-c2ccc(C)cc2)cc1 [Compound 1b]
- IC50 [1]: 54.9 ± 0.757 µM

SMILES: CCOC(=O)c1n[nH]nc1-c1cccc(Cl)c1 [Compound 2d]
- IC50 [1]: 2.55 ± 0.033 µM

SMILES: Clc1cccc(-c2n[nH]nc2-c2cccc(Cl)c2)c1 [Compound 1d]
- IC50 [1]: 2.51 ± 0.06 µM

SMILES: NC(=O)c1n[nH]nc1-c1ccc(F)c(Br)c1 [3 l]
- IC50 [1]: 1.993 ± 0.005 µM

SMILES: c1ccc(-c2nn[nH]c2-c2ccccc2)cc1 [Compound 1a, 4,5-diphenyl 2H-1,2,3-triazole]
- inhibition at 0.032 µM ([2]; 32 nM): 8%
- inhibition at 0.16 µM ([2]; 160 nM): 10%
- inhibition at 0.8 µM ([2]; 800 nM): 19%
- inhibition at 4 µM ([2]; 4 µM): 28%
- inhibition at 20 µM ([2]; 20 µM): 40%
- inhibition at 100 µM ([2]; 100 µM): 59%
- IC50 [1]: 90 ± 2.94 µM

SMILES: Brc1ccc(-c2n[nH]nc2-c2ccc(Br)cc2)cc1 [Compound 1h]
- IC50 [1]: 40.7 ± 2.7 µM

SMILES: CCOC(=O)c1n[nH]nc1-c1ccc(F)c(Cl)c1 [Compound 2k]
- IC50 [1]: 1.69 ± 0.102 µM

SMILES: Fc1ccc(-c2n[nH]nc2-c2ccc(F)c(Cl)c2)cc1Cl [Compound 1k]
- IC50 [1]: 6.91 ± 0.099 µM

SMILES: CCOC(=O)c1n[nH]nc1-c1ccc(C)cc1 [Compound 2b]
- IC50 [1]: 1.7 ± 0.061 µM

SMILES: Brc1cccc(-c2n[nH]nc2-c2cccc(Br)c2)c1 [Compound 1e]
- IC50 [1]: 21.9 ± 1.27 µM

SMILES: CCOC(=O)c1n[nH]nc1-c1ccc(Cl)cc1 [Compound 2g]
- % of Enzyme inhibition (TDO) ([2]; 32 nM): 16%
- % of Enzyme inhibition (TDO) ([2]; 160 nM): 18%
- % of Enzyme inhibition (TDO) ([2]; 800 nM): 23%
- % of Enzyme inhibition (TDO) ([2]; 4 µM): 28%
- % of Enzyme inhibition (TDO) ([2]; 20 µM): 36%
- % of Enzyme inhibition (TDO) ([2]; 100 µM): 46%
- IC50 [1]: 0.392 ± 0.084 µM

Next, values leading:

- inhibition at 0.032 µM ([2]; 32 nM): 3%
- inhibition at 0.16 µM ([2]; 160 nM): 10%
- inhibition at 0.8 µM ([2]; 800 nM): 11%
- inhibition at 4 µM ([2]; 4 µM): 19%
- inhibition at 20 µM ([2]; 20 µM): 25%
- inhibition at 100 µM ([2]; 100 µM): 26%
- IC50 (IDO1 [3]; HPLC based IDO1 inhibition assay): 98 ± 7 nM
- inhibition at 0.032 µM (IDO1 [3]; HPLC, 32 nM): 33%
- inhibition at 0.16 µM (IDO1 [3]; HPLC, 160 nM): 57%
- inhibition at 0.8 µM (IDO1 [3]; HPLC, 800 nM): 65%
- inhibition at 4 µM (IDO1 [3]; HPLC, 4 µM): 88%
- inhibition at 20 µM (IDO1 [3]; HPLC, 20 µM): 93%
- inhibition at 100 µM (IDO1 [3]; HPLC, 100 µM): 94%
- inhibition at 0.032 µM (TDO enzyme; 32 nM): 14%
- inhibition at 0.16 µM (TDO enzyme; 160 nM): 15%
- inhibition at 0.8 µM (TDO enzyme; 800 nM): 22%
- inhibition at 4 µM (TDO enzyme; 4 µM): 29%
- inhibition at 20 µM (TDO enzyme; 20 µM): 38%
- inhibition at 100 µM (TDO enzyme; 100 µM): 55%
- EC50 (IDO1 [4]): 83 ± 5 nM
- inhibition at 4 µM ([1]; 4 μM compound): 71 to 86%
- inhibition at 100 µM ([1]; 100 μM compound): 82 to 93%
- IC50 [1]: 0.093 ± 0.009 µM
SMILES: NS(=O)(=O)NCCNC(=O)c1n[nH]nc1-c1ccc(Cl)c(Cl)c1 [Compound 4l, 5-(3,4-dichlorophenyl)-N-(2-(sulfamoylamino)ethyl)-2H-1,2,3-triazole-4-carboxamide]

- IC50 [1]: 1.83 ± 0.126 µM
SMILES: NC(=O)c1n[nH]nc1-c1ccc(F)c(Cl)c1 [Compound 3k]

- IC50 [1]: 7.08 ± 0.691 µM
SMILES: Cc1ccc(-c2n[nH]nc2C(N)=O)cc1 [Compound 3b]

- IC50 [1]: 3.81 ± 0.24 µM
SMILES: O=C(N/C(Cc1ccc(F)c(F)c1)=N\O)c1n[nH]nc1-c1ccc(F)c(F)c1 [Compound 4h]

- IC50 [1]: 6.61 ± 0.355 µM
SMILES: NC(=O)c1n[nH]nc1-c1cccc(F)c1 [Compound 3c]

- IC50 [1]: 2.69 ± 0.055 µM
SMILES: NC(=O)c1n[nH]nc1-c1cccc(Cl)c1 [Compound 3d]

- IC50 [1]: 2.36 ± 0.308 µM
SMILES: CC(=O)Nc1ccc(/C(=N/O)NC(=O)c2n[nH]nc2-c2ccc(F)c(F)c2)cc1 [Compound 4j]

- IC50 [1]: 2.74 ± 0.195 µM
SMILES: CC(C)(C)OC(=O)NCCNC(=O)c1n[nH]nc1-c1ccc(F)c(F)c1 [Compound 4f]

- IC50 [1]: 5.156 ± 0.011 µM
SMILES: NC(=O)c1n[nH]nc1-c1ccc(Br)cc1 [Compound 3h]

- IC50 [1]: 18.7 ± 0.398 µM
SMILES: O=C(NC1C2CC3CC(C2)CC1C3)c1n[nH]nc1-c1ccc(Cl)c(Cl)c1 (centres unmarked) [Compound 4e]

- IC50 [1]: 26.7 ± 2.2 µM
SMILES: NC(=O)c1n[nH]nc1-c1cccc(Br)c1 [Compound 3e]

- IC50 [1]: 0.88 ± 0.018 µM
SMILES: O=C(N/C(Cc1ccccc1)=N\O)c1n[nH]nc1-c1ccc(F)c(F)c1 [Compound 4g]

- % of Enzyme inhibition (TDO) ([2]; 32 nM): 5%
- % of Enzyme inhibition (TDO) ([2]; 160 nM): 8%
- % of Enzyme inhibition (TDO) ([2]; 800 nM): 15%
- % of Enzyme inhibition (TDO) ([2]; 4 µM): 27%
- % of Enzyme inhibition (TDO) ([2]; 20 µM): 35%
- % of Enzyme inhibition (TDO) ([2]; 100 µM): 39%
- IC50 [1]: 0.624 ± 0.023 µM
SMILES: NC(=O)c1n[nH]nc1-c1ccc(Cl)cc1 [Compound 3g]

- IC50 [1]: 2.94 ± 0.034 µM
SMILES: NC(=O)c1n[nH]nc1-c1ccc(F)cc1 [Compound 3f]
